The source made the active and inactive calls.
Tests used:
[1] = target: Cytochrome P450 2C9 (Homo sapiens, UniProt P11712)
[2] = target: T1, Cytochrome P450 1A2 (Homo sapiens, UniProt P05177);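 further: PubChem cytochrome P450 panel assay, CYP1A2 panel member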
T1 sequence (P05177 whole entry): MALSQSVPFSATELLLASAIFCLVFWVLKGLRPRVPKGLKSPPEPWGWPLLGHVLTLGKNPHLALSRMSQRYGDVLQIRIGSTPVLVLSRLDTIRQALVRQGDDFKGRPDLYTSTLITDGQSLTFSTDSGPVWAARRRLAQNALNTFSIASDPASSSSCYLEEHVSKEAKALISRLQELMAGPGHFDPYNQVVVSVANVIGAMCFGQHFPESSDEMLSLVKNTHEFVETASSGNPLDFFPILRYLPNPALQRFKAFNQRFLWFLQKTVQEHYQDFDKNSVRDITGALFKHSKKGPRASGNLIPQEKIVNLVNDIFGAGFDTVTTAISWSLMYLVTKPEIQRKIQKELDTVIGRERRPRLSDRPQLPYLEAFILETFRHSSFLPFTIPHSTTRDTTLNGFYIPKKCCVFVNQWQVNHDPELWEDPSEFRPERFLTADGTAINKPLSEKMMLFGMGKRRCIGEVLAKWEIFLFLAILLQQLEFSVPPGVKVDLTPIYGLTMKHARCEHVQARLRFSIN

[3] = cytotoxicity toward DRD oncogenic fibroblasts, dose response, cell-based, non-viral oncogenic, luminescence (AID 1934); format: functional; details: Homo sapiens
[4] = tested on: BJ; assay: cells; format: functional, cell-based; details: Homo sapiens
[5] = tested on: BJ; assay: cytotoxicity toward BJ-TERT-LT-ST fibroblasts, dose response, cell-based, RAS-independent, luminescence (AID 1935); format: functional; details: Homo sapiens;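 further: BJ fibroblasts immortalized with TERT plus LT and ST oncogenes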
[6] = tested on: BJ; assay: cytotoxicity toward BJ-TERT fibroblasts, dose response, cell-based, RAS-independent, luminescence (AID 1933); format: functional; details: Homo sapiens
[7] = cytotoxicity toward NIH3T3 fibroblasts, dose response, counter-screen, cell-based, ATP luminescence, mouse fibroblasts (AID 2010); format: functional;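 further: cells exposed to compound for about 90 hours before reading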
[8] = inhibitors of intracellular T. cruzi replication, confirmation, NIH3T3 host cells, beta-gal luminescence (AID 2044); format: functional, cell-based;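 further: intracellular parasites grown in NIH/3T3 mouse fibroblasts as host cells; luminescent beta-galactosidase reporter signal from transgenic T. cruzi replicating inside host cells; inhibitors lower the luminescence signal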
[9] = target: T2, Microphthalmia-associated transcription factor (Homo sapiens, UniProt O75030); assay: TRPM1 promoter luciferase signal decrease, dose response, MITF inhibitor project, cell-based, SK-MEL-5, cherry-picked, set 3 (AID 493073); format: functional
T2 sequence (O75030 whole entry): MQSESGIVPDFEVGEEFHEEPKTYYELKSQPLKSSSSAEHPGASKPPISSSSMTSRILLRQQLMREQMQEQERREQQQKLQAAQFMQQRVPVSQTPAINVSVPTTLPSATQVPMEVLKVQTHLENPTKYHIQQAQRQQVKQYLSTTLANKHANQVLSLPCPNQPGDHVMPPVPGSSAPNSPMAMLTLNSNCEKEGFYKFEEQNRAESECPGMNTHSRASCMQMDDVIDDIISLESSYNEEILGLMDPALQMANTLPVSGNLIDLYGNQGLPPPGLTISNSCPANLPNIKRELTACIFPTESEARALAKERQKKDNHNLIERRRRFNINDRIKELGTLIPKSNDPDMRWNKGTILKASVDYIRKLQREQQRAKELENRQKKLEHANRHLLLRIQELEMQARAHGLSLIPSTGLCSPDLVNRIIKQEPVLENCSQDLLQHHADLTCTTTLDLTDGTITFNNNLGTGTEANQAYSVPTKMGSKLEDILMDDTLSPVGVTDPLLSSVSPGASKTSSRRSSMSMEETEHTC

[10] = Luminescence Cell-Based Dose Retest to Confirm Inhibitors of Cancer Stem Cells. [Related pubchem assays (depositor defined):AID2717, AID2721]; format: functional; details: Homo sapiens
[11] = target: Heat shock protein HSP 90-alpha (Homo sapiens, UniProt P07900); format: functional, organism-based
[12] = inhibitors of HIV Env-driven cell fusion, dose response, cherry-pick (AID 652057); format: functional, cell-based
[13] = inhibitors of clade B AD8 Env fusion, dose response, cell-based, cherry-pick (AID 652062); format: functional;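 further: luciferase signal from cell-cell fusion driven by HIV-1 clade B AD8 Env; potency is for inhibitors of fusion seen as a drop in luminescence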
[14] = CEM21 lymphoblast cell cytotoxicity, dose response, cytotoxicity control for viral fusion inhibitor project, CellTiter-Glo luminescence, cherry-picked (AID 652042); format: functional, cell-based;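 further: potency for signal decrease meaning cytotoxicity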
[15] = ZM109 Env clade C HIV-1 fusion inhibitors, dose response, HeLa effector, CEM target cells, luciferase, cherry-pick (AID 652058); format: functional, cell-based
[16] = target: T3, Heat shock factor protein 1 (Mus musculus, UniProt P38532); assay: HSF1 potentiators in luciferase reporter cells, confirmation, cell-based, NIH3T3, luminescence, dose retest (AID 435004); format: functional;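 further: stress induced by proteasome inhibitor MG132 added 30 min after compound; luciferase reporter driven by HSF1 response element in NIH3T3 cells; actives raise luminescence as potentiators of the MG132 stress response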
T3 sequence (P38532 whole entry): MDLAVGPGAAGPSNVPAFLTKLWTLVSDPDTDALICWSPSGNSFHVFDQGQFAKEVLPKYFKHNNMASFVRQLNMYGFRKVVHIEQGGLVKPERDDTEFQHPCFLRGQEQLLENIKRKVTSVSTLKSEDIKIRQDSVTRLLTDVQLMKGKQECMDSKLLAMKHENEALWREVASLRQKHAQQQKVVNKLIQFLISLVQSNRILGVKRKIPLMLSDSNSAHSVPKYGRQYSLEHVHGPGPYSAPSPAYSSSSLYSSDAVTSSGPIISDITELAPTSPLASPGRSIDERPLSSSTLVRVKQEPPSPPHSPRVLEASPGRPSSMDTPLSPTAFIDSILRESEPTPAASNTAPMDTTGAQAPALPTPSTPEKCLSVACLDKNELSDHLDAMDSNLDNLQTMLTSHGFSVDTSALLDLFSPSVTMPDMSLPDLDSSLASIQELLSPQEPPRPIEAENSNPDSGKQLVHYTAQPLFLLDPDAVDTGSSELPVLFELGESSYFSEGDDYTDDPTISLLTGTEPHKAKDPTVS

[17] = off-target signal loss in HeLa-CEM21 co-culture – HeLa F-luc CTL cells, cherry-picked, counter-screen for HIV-1 Env fusion inhibitor project, dose response (AID 652040); format: functional, cell-based;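 further: potency for signal decrease marking cytotoxic or nonspecific inhibition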
[18] = CRF-BP/CRF-R2 complex antagonists, dose response, cell-based, uHTS hits, 384-well (AID 651639); format: functional, Homo sapiens; details: read-out: IC50_Mean
[19] = target: T4, Corticotropin-releasing factor receptor 2/Corticotropin-releasing factor-binding protein (Homo sapiens, UniProt P24387+Q13324); assay: activators of CRF receptor 2 with binding protein – uHTS hits, confirmation (AID 602473); format: functional; details: read-out: EC50_Mean
T4 sequence (Q13324 whole entry): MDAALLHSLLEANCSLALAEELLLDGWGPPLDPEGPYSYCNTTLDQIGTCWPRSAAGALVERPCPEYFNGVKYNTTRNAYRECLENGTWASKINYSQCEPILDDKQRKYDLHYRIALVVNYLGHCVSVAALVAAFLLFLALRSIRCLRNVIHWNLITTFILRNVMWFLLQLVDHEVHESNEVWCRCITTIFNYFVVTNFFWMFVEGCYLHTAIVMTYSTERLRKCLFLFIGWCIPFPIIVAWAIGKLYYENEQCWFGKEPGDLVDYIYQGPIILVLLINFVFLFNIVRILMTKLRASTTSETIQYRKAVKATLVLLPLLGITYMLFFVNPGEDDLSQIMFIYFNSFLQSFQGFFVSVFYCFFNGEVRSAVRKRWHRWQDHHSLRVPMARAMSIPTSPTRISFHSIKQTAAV
T4 sequence (P24387 whole entry): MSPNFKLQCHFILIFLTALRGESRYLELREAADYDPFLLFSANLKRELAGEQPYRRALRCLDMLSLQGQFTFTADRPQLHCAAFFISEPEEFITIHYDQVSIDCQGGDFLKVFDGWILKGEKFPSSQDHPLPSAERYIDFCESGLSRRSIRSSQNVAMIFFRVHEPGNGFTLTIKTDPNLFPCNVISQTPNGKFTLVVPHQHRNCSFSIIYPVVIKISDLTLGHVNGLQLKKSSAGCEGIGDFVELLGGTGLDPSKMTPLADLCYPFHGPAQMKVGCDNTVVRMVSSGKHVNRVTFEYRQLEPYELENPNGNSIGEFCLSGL

[20] = target: T4, Corticotropin-releasing factor receptor 2/Corticotropin-releasing factor-binding protein; assay: Dose Response confirmation of uHTS hits for small molecule antagonists of the CRF-binding protein and CRF-R2 receptor complex.; format: functional; details: read-out: IC50_Mean
[21] = target: Cytochrome P450 2D6 (Homo sapiens, UniProt P10635);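 further: CYP2D6 member of a cytochrome P450 panel assay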
[22] = target: Cytochrome P450 2C19 (Homo sapiens, UniProt P33261); assay: Cytochrome panel assay with activity outcomes. Panel member name: p450-cyp2c19 Compounds with AC50 equal or less than 10 uM are considered active; format: functional
[23] = target: Cytochrome P450 3A4 (Homo sapiens, UniProt P08684);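 further: CYP3A4 tested as one member of a cytochrome P450 panel screen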
[24] = Luminescence Cell-Based Dose Confirmation HTS to Identify Inhibitors of Platelet Dense Granule Release. [Related pubchem assays: 1663 (Primary HTS), 1678 (Summary of Project)]; format: functional
[25] = target: Luciferin 4-monooxygenase (Photinus pyralis, UniProt P08659); assay: firefly luciferase enzyme inhibitors, dose response, biochemical, luminescence (AID 1891)
[26] = target: Paired box protein Pax-8 (Homo sapiens, UniProt Q06710); assay: inhibitors of PAX8-driven TPO luciferase reporter, dose response, RMG-I cells, cherry-pick (AID 687027); format: functional, cell-based;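 further: luciferase reporter driven by Pax8 target thyroperoxidase promoter measured by SteadyGlo luminescence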
[27] = non-specific cell cytotoxicity, dose response, cytotoxicity control for PAX8 inhibitor project, plate reader, dry powder samples (AID 743021); format: functional, cell-based

Chain of Cytochrome P450 2C9 (P11712 whole entry): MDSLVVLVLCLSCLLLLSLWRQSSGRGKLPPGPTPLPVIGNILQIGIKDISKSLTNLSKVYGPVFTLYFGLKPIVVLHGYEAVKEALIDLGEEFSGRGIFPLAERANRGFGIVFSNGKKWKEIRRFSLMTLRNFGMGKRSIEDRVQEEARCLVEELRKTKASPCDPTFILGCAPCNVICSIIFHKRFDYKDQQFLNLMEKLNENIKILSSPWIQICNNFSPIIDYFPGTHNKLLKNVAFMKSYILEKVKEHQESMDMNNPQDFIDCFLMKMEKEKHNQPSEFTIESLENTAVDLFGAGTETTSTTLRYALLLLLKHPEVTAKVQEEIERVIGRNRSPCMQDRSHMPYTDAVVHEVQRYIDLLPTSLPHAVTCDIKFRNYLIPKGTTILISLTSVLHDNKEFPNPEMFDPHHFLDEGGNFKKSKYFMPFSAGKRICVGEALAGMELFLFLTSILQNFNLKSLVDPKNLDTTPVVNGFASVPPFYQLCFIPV
Chain of Cytochrome P450 2C19 (P33261 whole entry): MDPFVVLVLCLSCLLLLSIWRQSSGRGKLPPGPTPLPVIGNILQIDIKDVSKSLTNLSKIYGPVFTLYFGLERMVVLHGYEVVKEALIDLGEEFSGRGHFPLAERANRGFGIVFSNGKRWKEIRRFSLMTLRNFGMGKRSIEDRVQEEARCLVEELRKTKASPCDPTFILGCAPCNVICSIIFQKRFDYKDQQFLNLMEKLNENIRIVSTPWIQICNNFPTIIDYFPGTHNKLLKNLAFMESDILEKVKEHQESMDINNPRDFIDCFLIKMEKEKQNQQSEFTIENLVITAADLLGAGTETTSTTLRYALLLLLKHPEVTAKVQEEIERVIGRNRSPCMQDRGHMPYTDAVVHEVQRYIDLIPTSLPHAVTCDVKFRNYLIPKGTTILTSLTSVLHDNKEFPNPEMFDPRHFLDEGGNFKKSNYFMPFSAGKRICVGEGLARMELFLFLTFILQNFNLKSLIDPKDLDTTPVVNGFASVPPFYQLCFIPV
Chain of Paired box protein Pax-8 (Q06710 whole entry): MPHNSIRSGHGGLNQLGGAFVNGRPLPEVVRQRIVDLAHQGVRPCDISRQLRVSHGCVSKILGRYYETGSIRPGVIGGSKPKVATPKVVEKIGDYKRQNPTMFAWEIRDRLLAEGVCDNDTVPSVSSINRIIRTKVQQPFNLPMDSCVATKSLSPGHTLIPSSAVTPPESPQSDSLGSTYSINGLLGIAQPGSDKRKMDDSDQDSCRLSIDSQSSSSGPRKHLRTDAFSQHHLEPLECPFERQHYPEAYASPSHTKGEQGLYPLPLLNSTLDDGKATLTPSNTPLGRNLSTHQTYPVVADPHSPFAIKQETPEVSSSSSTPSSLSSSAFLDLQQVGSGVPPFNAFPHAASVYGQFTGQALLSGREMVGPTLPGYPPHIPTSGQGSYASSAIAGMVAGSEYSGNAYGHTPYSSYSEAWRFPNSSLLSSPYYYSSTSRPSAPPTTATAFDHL
Chain of Cytochrome P450 2D6 (P10635 whole entry): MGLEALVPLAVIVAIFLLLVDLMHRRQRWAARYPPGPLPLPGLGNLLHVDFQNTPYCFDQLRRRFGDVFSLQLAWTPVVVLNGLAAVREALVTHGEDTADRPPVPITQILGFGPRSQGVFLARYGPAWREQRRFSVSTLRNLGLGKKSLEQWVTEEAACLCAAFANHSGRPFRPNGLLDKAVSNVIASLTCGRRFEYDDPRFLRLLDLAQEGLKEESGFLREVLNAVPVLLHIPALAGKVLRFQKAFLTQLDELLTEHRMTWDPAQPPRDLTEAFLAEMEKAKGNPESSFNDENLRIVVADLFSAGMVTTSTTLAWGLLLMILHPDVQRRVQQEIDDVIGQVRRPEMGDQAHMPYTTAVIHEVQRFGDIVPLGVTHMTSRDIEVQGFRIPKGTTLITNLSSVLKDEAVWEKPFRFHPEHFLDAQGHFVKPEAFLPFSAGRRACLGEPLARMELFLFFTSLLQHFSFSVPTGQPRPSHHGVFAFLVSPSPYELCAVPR
Chain of Cytochrome P450 3A4 (P08684 whole entry): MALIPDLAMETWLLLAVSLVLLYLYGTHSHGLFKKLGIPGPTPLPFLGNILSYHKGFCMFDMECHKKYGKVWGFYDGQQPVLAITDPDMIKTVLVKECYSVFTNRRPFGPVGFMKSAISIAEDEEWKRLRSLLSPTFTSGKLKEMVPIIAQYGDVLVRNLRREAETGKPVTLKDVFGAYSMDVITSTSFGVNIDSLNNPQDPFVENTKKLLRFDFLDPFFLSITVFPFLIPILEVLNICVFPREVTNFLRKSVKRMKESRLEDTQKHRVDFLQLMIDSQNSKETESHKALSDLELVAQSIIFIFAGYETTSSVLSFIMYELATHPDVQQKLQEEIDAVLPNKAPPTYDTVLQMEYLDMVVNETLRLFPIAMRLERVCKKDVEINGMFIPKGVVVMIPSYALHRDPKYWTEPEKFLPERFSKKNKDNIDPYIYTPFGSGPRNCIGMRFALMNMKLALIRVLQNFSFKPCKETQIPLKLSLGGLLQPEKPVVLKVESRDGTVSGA
Chain of Luciferin 4-monooxygenase (P08659 whole entry): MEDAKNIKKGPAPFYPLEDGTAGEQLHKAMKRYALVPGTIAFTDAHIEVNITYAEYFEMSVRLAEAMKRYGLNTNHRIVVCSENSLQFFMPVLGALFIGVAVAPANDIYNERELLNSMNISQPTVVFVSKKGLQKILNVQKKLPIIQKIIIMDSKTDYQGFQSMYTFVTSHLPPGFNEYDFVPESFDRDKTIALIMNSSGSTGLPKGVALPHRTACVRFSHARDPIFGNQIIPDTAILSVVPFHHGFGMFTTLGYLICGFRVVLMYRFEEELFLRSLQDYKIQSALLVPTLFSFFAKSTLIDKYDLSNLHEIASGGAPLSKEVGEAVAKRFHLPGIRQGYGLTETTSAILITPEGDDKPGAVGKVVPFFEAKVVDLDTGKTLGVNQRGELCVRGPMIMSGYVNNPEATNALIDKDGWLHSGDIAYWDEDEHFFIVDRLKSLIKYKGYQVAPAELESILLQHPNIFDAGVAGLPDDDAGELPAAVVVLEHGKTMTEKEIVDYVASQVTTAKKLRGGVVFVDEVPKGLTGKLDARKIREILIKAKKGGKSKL

O=C(CCl)Nc1ccc(Oc2cnc3ccccc3n2)cc1
AC50 [1]: inconclusive
AC50 [2]: 8.91 µM (inconclusive)
EC50 [3]: 16.9 µM (active)
EC50 [4]: > 150 µM (not active)
EC50 [5]: > 75 µM (inconclusive)
EC50 [6]: 6.36 µM (active)

Cc1ccc2c(C(=O)CCl)c(C)[nH]c2c1
EC50 [7]: 11.3 µM (active)
EC50 [8]: 3.94 µM (active)
AC50 [9]: 8.17 µM (active)

CCc1ccc(-c2cc(C(=O)N3N=C(C(F)F)CC3(O)C(F)F)c3ccccc3n2)cc1 (stereo unspecified)
EC50 [7]: > 60 µM (not active)
AC50 [10]: 5.74 µM (active)
EC50 [8]: 2.9 µM (active)
AC50 [11]: 4.04 µM (active)

Cc1ccc(C(C(=O)NC2CCCCC2)N(C(=O)Cc2c[nH]c3ccccc23)c2ccccc2)o1 (stereo unspecified)
AC50 [12]: 4.14 µM (active)
EC50 [7]: > 60 µM (not active)
AC50 [13]: 6.79 µM (active)
EC50 [8]: 1.6 µM (active)
AC50 [14]: 47.4 µM (active)
AC50 [15]: 2.63 µM (active)
EC50 [16]: > 260 µM (inactive)
AC50 [17]: 10.3 µM (active)

CCN(CC)S(=O)(=O)c1ccc(Cl)c(NC(=O)c2cc(Cl)cc(Cl)c2)c1
IC50 [18]: > 20 µM (inactive)
EC50 [19]: > 53 µM (inactive)
IC50 [20]: 3.26 µM (active)

CC1CCN(C(=O)C2CCN(S(=O)(=O)c3cccc4nonc34)CC2)CC1
AC50 [1]: inconclusive

C=CCNc1nc(SCC=C)nc2ccsc12
AC50 [1]: inconclusive
AC50 [21]: 15.8 µM (inconclusive)

COc1cccc2ccc(CC(O)(c3ccccc3)c3ccccc3)nc12
IC50 [18]: > 20 µM (inactive)
EC50 [19]: > 53 µM (inactive)
IC50 [20]: < 0.368 µM (active)

C[C@H](CO)N1C[C@H](C)[C@H](CN(C)Cc2ccc(F)cc2)OCc2ccccc2-c2ccccc2C1=O
AC50 [12]: 0.557 µM (active)
AC50 [13]: 3.77 µM (active)
AC50 [15]: 1.39 µM (active)

Cc1nc(-c2cccnc2)sc1C(=O)Nc1ccc(F)cc1F
AC50 [1]: inconclusive
AC50 ([22]; read-out: AC50): 8.91 µM (inconclusive)

C/C(Cl)=C\Cn1c(N2CCCC2)nc2c1c(=O)[nH]c(=O)n2C
AC50 [1]: inconclusive
AC50 [23]: 15.8 µM (inconclusive)
AC50 [22]: inconclusive

CCOc1ccc(S(=O)(=O)NCc2ccc(F)cc2)c2cccnc12
AC50 [1]: inconclusive
AC50 [21]: 31.6 µM (inconclusive)
AC50 ([22]; read-out: AC50): 7.94 µM (inconclusive)

Cc1nc2ccccc2n1CC(=O)NCc1ccccc1
AC50 [13]: 16.8 µM (active)
AC50 [17]: > 70 µM (inactive)

O=C(NC(=O)c1ccccc1)Nc1ccccn1
AC50 [12]: 2.44 µM (active)
AC50 [13]: 6.09 µM (active)
EC50 [24]: 2.1 µM (active)
AC50 [14]: 39.1 µM (active)
EC50 [25]: 4.17 µM (active)
AC50 [15]: 37.7 µM (active)
AC50 [17]: 9.35 µM (active)

COc1ccccc1NS(=O)(=O)c1cccc(C(=O)N/N=C/c2ccc([N+](=O)[O-])o2)c1
AC50 [9]: 4.3 µM (active)
AC50 [26]: 6.29 µM (active)

CC(=O)N(C(C)=O)c1cccc(N(Cc2ccccc2)Cc2ccccc2)c1
IC50 [18]: > 20 µM (inactive)
EC50 [19]: > 53 µM (inactive)
IC50 [20]: 5.83 µM (active)

COC(=O)C1=C(SC)N(c2ccccc2)C(c2ccccc2)CC1=O (stereo unspecified)
AC50 [27]: 62 µM (active)
AC50 [26]: 54.1 µM (active)

O=C(Cc1ccccc1)N[C@@H]1C=C[C@H](CC(=O)N2CCCCC2)O[C@@H]1CO
AC50 [15]: 28.7 µM (active)

COc1ccc([N+](=O)[O-])cc1NCc1ccccc1
IC50 [18]: 14.5 µM (active)
EC50 [19]: > 53 µM (inactive)
IC50 [20]: 12 µM (active)
